Each compound was assayed against T1, Epidermal growth factor receptor (Homo sapiens, UniProt P00533) (assay: Inhibition of Epidermal growth factor receptor from A431 cells).
T1 sequence (P00533 whole entry): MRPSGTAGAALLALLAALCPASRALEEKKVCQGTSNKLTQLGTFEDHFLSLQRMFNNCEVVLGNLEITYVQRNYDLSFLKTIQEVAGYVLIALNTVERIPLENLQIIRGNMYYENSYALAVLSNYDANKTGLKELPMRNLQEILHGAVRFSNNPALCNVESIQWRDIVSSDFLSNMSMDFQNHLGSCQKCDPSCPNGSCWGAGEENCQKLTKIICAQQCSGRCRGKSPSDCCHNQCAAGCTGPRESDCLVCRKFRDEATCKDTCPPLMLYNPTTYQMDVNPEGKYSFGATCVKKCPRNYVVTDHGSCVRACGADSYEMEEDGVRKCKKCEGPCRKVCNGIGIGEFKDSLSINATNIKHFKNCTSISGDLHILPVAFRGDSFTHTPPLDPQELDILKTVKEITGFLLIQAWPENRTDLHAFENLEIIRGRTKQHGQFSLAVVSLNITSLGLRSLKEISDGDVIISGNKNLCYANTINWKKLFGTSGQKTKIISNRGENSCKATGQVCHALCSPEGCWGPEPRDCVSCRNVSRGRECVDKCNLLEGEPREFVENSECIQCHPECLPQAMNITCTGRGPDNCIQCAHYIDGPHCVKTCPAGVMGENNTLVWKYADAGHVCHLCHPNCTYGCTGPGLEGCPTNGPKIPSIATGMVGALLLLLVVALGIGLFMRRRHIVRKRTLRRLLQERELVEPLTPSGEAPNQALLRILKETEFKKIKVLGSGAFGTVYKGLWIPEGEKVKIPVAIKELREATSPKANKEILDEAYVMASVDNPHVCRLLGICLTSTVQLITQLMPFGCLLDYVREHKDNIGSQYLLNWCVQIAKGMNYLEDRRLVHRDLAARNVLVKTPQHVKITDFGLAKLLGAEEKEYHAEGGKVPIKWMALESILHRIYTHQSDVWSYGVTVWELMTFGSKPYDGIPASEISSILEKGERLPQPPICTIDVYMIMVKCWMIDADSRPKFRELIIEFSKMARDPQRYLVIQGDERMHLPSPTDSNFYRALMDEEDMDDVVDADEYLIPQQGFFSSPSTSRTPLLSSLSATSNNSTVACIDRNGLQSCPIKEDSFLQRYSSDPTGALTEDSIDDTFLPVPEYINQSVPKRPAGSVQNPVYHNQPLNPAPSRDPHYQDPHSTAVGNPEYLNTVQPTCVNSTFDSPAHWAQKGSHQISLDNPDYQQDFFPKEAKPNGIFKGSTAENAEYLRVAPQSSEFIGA

First: c1ccc(CNc2ncnc3ccccc23)cc1
Second: Nc1cccc2c(NCc3ccccc3)ncnc12
The IC50 of the first is lower: 320 nM for the first, > 10000 nM for the second. The first is the more potent here.

Compared with `O=[N+]([O-])c1cccc2ncnc(Nc3cccc(Br)c3)c12`, `COc1cccc2c(Nc3cccc(Br)c3)ncnc12` is 2.7-fold higher in IC50: 355 nM for the first, 974 nM for the second. The first is the more potent here.

Compared with `O=[N+]([O-])c1cccc2c(NCc3ccccc3)ncnc12`, `Oc1cc2ncnc(Nc3cccc(Br)c3)c2cc1O` is lower in IC50: > 10000 nM for the first, 0.17 nM for the second. The second is the more potent here.

What follows are compounds tested against T1, Epidermal growth factor receptor (assay: Evaluation of inhibitory activity against phospholipase C-gamma1 phosphorylation by Epidermal growth factor receptor enzyme isolated from A431 cells.).

First: COc1cc2ncnc(NCc3ccccc3)c2cc1O
Second: COc1cc2c(NCc3ccccc3)ncnc2cc1O
The IC50 of the first is 10-fold lower: 56 nM for the first, 588 nM for the second.

First: O=[N+]([O-])c1ccc2c(NCc3ccccc3)ncnc2c1
Second: O=[N+]([O-])c1ccc2ncnc(NCc3ccccc3)c2c1
The IC50 of the first is lower: 5900 nM for the first, > 10000 nM for the second.

`COc1ccc(CNc2ncnc3ccccc23)cc1` and `Clc1ccc(CNc2ncnc3ccccc23)cc1` are within 1.5-fold of each other in IC50: 10000 nM for the first, 7000 nM for the second.

`Brc1cccc(Oc2ncnc3ccccc23)c1` and `Cc1cccc(Nc2ncnc3ccccc23)c1` are within 1.5-fold of each other in IC50: 756 nM for the first, 910 nM for the second.

`c1ccc(CCNc2ncnc3ccccc23)cc1` and `Nc1ccc2c(NCc3ccccc3)ncnc2c1` cannot be ordered by IC50: 4100 nM for the first, > 1000 nM for the second.

`Brc1cccc(Nc2cnnc3ccccc23)c1` and `Brc1cccc(Nc2nncc3ccccc23)c1` cannot be ordered by IC50: > 10000 nM for the first, > 100000 nM for the second.

First: COc1cccc2ncnc(Nc3cccc(Br)c3)c12
Second: Nc1cccc2ncnc(Nc3cccc(Br)c3)c12
The IC50 of the first is 3.2-fold lower: 139 nM for the first, 439 nM for the second.

Compared with `O=[N+]([O-])c1cccc2c(Nc3cccc(Br)c3)ncnc12`, `Nc1cccc2c(Nc3cccc(Br)c3)ncnc12` is lower in IC50: > 10000 nM for the first, 105 nM for the second. The second is the more potent here.

Compared with `Nc1cccc2ncnc(NCc3ccccc3)c12`, `COc1cccc2ncnc(NCc3ccccc3)c12` is lower in IC50: > 10000 nM for the first, 4900 nM for the second. The second is the more potent here.

Compared with `O=[N+]([O-])c1cccc2ncnc(NCc3ccccc3)c12`, `Nc1ccc2ncnc(NCc3ccccc3)c2c1` is 5.7-fold lower in IC50: 8000 nM for the first, 1400 nM for the second. The second is the more potent here.

`Brc1cccc(Nc2nnnc3ccccc23)c1` and `Brc1cccc(Nc2ccnc3ccccc23)c1` cannot be ordered by IC50: > 1000 nM for the first, 5500 nM for the second.

Compared with `CN(c1ccccc1)c1ncnc2ccccc12`, `Clc1cccc(Nc2ncnc3ccccc23)c1` is 4300-fold lower in IC50: 100000 nM for the first, 23 nM for the second. The second is the more potent here.

Going from `COc1cc2ncnc(NCc3ccccc3)c2cc1OC` to `COc1ccc2c(NCc3ccccc3)ncnc2c1`, the IC50 rises from 10 nM to 58 nM (5.8-fold). The first is the more potent here.

Compared with `Nc1cc2ncnc(Nc3cccc(Br)c3)c2cc1N`, `COc1ccc2ncnc(Nc3cccc(Br)c3)c2c1` is 2900-fold higher in IC50: 0.12 nM for the first, 348 nM for the second.

`O=[N+]([O-])c1ccc2ncnc(Nc3cccc(Br)c3)c2c1` and `O=[N+]([O-])c1ccc2c(Nc3cccc(Br)c3)ncnc2c1` are within 1.5-fold of each other in IC50: 897 nM for the first, 1000 nM for the second.

`Brc1cccc(Nc2cnc3ccccc3n2)c1` and `Brc1cccc(Nc2nccc3ccccc23)c1` cannot be ordered by IC50: > 100000 nM for the first, > 100000 nM for the second.

First: COc1ccc2ncnc(NCc3ccccc3)c2c1
Second: COc1cccc2c(NCc3ccccc3)ncnc12
The IC50 of the first is lower: 200 nM for the first, > 10000 nM for the second.

First: FC(F)(F)c1cccc(Nc2ncnc3ccccc23)c1
Second: Ic1cccc(Nc2ncnc3ccccc23)c1
The IC50 of the first is 7.2-fold higher: 577 nM for the first, 80 nM for the second.

For `COc1ccc2c(Nc3cccc(Br)c3)ncnc2c1`, the IC50 was 10 nM.

Reference: ChEMBL document CHEMBL1128536, “Tyrosine kinase inhibitors. 5. Synthesis and structure-activity relationships for 4-[(phenylmethyl)amino]- and 4-(phenylamino)quinazolines as potent adenosine 5'-triphosphate binding site inhibitors of the tyrosine kinase domain of the epidermal growth factor receptor” (J Med Chem, 1995)
